Source: US6893813B2, “Methods for treatment of HIV and other infections using a T cell or viral activator and anti-retroviral combination therapy” (priority 1997, dated 2005)

Legend:
[1] = tested on: PBMCs isolated from HIV-infected subjects; assay: culture of PBMCs from HIV-infected subjects without anti-retroviral drugs: T cell subsets; assay type: cell-based, human; settings: no anti-retroviral drugs
Source text: (§1) The percent of CD8+ cells in the culture increased with lower concentrations of CD3,8 BSMAB. […] Absent anti-retroviral drugs, this massive activation of HIV will eventually cause a sharp decrease in the CD4+ T cell population.

[2] = tested on: HIV; assay: HIV replication (p24 in culture supernatant) in PBMC cultures without anti-retroviral drugs; assay type: cell-based, human; settings: no anti-retroviral drugs
Source text: as §1

phytohemagglutinin [PHA]
T cell subsets activated [1]: both CD4+ and CD8+ T cells were activated | selective outgrowth of CD4+ T cells [1]: No selective outgrowth of the CD4+ T cells occurred | HIV replication (p24 in supernatant) [2]: induced increased HIV replication
